From ChEMBL document CHEMBL5346962, “Discovery of Sulanemadlin (ALRN-6924), the First Cell-Permeating, Stabilized α-Helical Peptide in Clinical Development” (J Med Chem, 2023)
pEC50: −log10 of the molar value. Bridge positions count the residues as written; N and C are the ends. Square brackets hold non-standard residues; d marks the D form. Peptide text beside a SMILES is read from it. R8 = C=CCCCCCC[C@@](C)(N)C(=O)O; S5 = C=CCCC[C@](C)(N)C(=O)O

System: SJSA-1
Assay: Cytotoxicity against human SJSA-1 cells incubated for 72 hrs in presence of 10% FBS by MTT assay
Conditions: SJSA-1, 72 h

Compound: CC(=O)N[C@@H](CC(C)C)C(=O)N[C@H](C(=O)N[C@@H](Cc1ccccc1)C(=O)N[C@]1(C)CCCCCC/C=C\CCC[C@@](C)(C(=O)N[C@@H](C)C(=O)N[C@@H](C)C(=O)N[C@@H](C)C(=O)O)NC(=O)[C@H](CC(C)C)NC(=O)[C@H](CCC(N)=O)NC(=O)[C@H](C)NC(=O)[C@H](Cc2c[nH]c3ccccc23)NC(=O)[C@H](Cc2ccc(O)cc2)NC(=O)[C@H](CCC(=O)O)NC1=O)[C@@H](C)O (Ac-LTF[R8]EYWAQL[S5]AAA-OH; staple (Z) 4-11)
- pEC50: 5.60
